Experimental data taken from patent publication US20030181434A1, “AlphaAED and betaAED regulation of nuclear transcription, gene regulation, and/or gene expression” (priority 2002, published 2003).

Assays:
PPARγ = assay: Western blot of PPARγ level in Dunning R3327 AT-1 rat prostate tumors after treatment; format: in vivo; details: untreated control = 100 R.A.U.
Description: (§1) Dunning R3327, AT-1, rat prostate cancer, is a completely hormone-refractory tumor cell line. […] It lacks measurable quantities of receptor for androgens and estrogens. The clinical behavior of this tumor is not influenced by presence or absence of sex steroids (Isaacs et al, Prostate 9:261-281 (1986)).
(§2) After an initial passage in young male rats, the tumor was implanted dorsally into young intact (not castrated) male Copenhagen-Fischer rats (Copenhagen, Denmark) of approximately 250 grams. Tumor transplants were allowed to grow until palpable and visible and reached a mean size of 10 mm in diameter prior to treatment. The vehicle for the drug was Polyethylene glycol 400 and ethanol 1:1. The drug was injected adjacent to the tumor. […]
(§3) Thawed tumors were homogenized in ice cold lysis-buffer (160 mM NaCl, 10 mM […], 2 mM […], 0.5% Triton X-100, 100 μg/ml phenylmetylsulfonyl fluoride, 1 μg/ml leupeptin and 2 μg/ml aprotinin), placed on ice for 15 minutes and following clarification centrifuged for 10 minutes at 13,000 g. Protein content of homogenates were determined by Lowry assay Q.
(§4) Protein in lysates ([…]) were separated by electrophoresis using 8% SDS-PAGE, the isolated proteins were transferred onto a nitrocellulose membrane (Amersham) in a trans-blot electrophoretic transfer cell (Bio-Rad Laboratories). […] Optical density was measured densitometrically. […]

COX-2 = assay: Western blot of COX-2 level in Dunning R3327 AT-1 rat prostate tumors after treatment; format: in vivo; details: untreated control = 100 R.A.U.
Description: as §1, §2, §3, §4

NF-κB = tested on: NF-κB
Description: as §1, §2, §3, §4

[1] = AT-1 tumor samples, 96 hours after single 10 mg dose injected adjacent to tumor
[2] = AT-1 tumor samples at 19 days, βAED single 80 mg dose, or αAED 10 mg then βAED 80 mg after 96 hours

Row | SMILES | PPARγ level, mean value (PPARγ; [1]) [R.A.U.] | COX-2 level, mean value (COX-2; [1]) [R.A.U.] | effect on levels of NF-κB (in words) (NF-κB; finding stated in the description, no value given) | PPARγ level, mean value (PPARγ; [2]) [R.A.U.] | COX-2 level, mean value (COX-2; [2]) [R.A.U.] | NF-κB level, mean value (NF-κB; AT-1 tumor samples at 19 days after single 80 mg dose, untreated control = 100 R.A.U.) [R.A.U.]
1 | C[C@]12CC[C@H]3[C@@H](CC=C4C[C@@H](O)CC[C@@]43C)[C@@H]1CC[C@H]2O [αAED, Δ5-Androstene-3β, 17α-diol] | 190 | 203 | increases |  |  | 
2 | C[C@]12CC[C@H]3[C@@H](CC=C4C[C@@H](O)CC[C@@]43C)[C@@H]1CC[C@@H]2O [βAED, Δ5-Androstene-3β, 17β-diol] |  |  |  | 47 | 135 | 68±13.6
